This is an account of results in patent US10869929B2, “Phosphonate linkers and their use to facilitate cellular retention of compounds” (priority 2016, dated 2020).

Where only a bound is given, the exact number is not on record here.

The target in one series is glucocorticoid receptor (Homo sapiens (Human), UniProt P04150). The series is described as follows: PolarScreen Glucocorticoid Receptor Competitor Assay (GR binding). The following applies: fluormone GS red, GR full length protein; read-out: GR Bind IC50.
The next series deals with MDCKII cells. Nature of the series: Apparent permeability in MDCKII cells. Type of series: in vitro ADME. The following applies: 1 μM, t=3 hr, average of A to B and B to A Papp.
The subject of a further series is ZBTB16 mRNA. Nature of the series: Up-regulation of ZBTB16 mRNA in primary human B cells. The following applies: for EC50: B-cell, free payload. Type of series: cell-based. Here is the method:
The carrier solution for all ADCs and naked antibodies was 50 mM histidine pH 6.0, 100 mM NaCl and 5% trehelose. To assure consistency across experiments, ADCs were thawed on ice, dispensed to small aliquots, frozen to −80° C., and those aliquots were then used for experiments with unused material discarded at the end of the day. For all in vitro studies in this report, none of the read outs were measurably different in the presence or absence of the carrier solution. Nevertheless, the final concentration of antibody carrier solution was maintained constant at 1% v/v by serially diluting antibody solution prior to addition to the assay mixture and adding carrier solution to control wells.
For the studies of ADCs bearing reduced permeability payloads frozen human CD19+ B cells purchased from Precision Biosciences (catalog #84400, donor #13108) were thawed and re-suspended in RPMI1640 plus 10% heat-inactivated FBS (cell culture medium) at 1 million cells/mL. […] B cells were bulk treated in a 96-well block and subsequently dispensed to 96 well plates (100 μL and […] cells per well) and incubated at 37° C., 5% CO2 for 18 or 40 hr. Control wells containing equal percentages of DMSO (0.1%) and ADC buffer (1%) as sample wells were included. Cells were transferred to a 96 well v-bottom plate and spun at 500×g for 5 min. Medium was removed and cells were lysed in 150 μL RLT buffer containing beta-mercaptoethanol. RNA was isolated (RNeasy 96 kit, Qiagen, Cat #74181) and cDNA was synthesized (iScript cDNA Synthesis Kit, BioRad, Cat #170-8891) according to the supplier's protocol. Quantitative PCR was performed on Applied Biosystem's 7900 HT Real-Time PCR System to measure expression of ZBTB16 (Life Technologies, Hs00957433_m1) and GAPDH (Life Technologies, Hs02758991_g1) in duplex format.
The ΔΔCt method was used to calculate fold change of expression of ZBTB16 relative to control sample, using 3 replicates per treatment condition. For free cell impermeable compounds, B cells were seeded at 100,000 cells/well in 90 μL in a 96-well flat bottom plate. Three fold serial dilutions were performed in DMSO, subsequent intermediate 10× stocks were made in tissue-culture medium and then added to the cell plate (10 μL/well). Cells were incubated at 37° C., 5% CO2 for 18 hr, harvested and processed for PCR as described above. EC50 curves were calculated using Graph Pad Prism 6 software using nonlinear fit (agonist) vs. response-variable slope (four parameters) calculation.
Potency and maximum activity of reduced permeability glucocorticoids (free payload) and the corresponding anti-CD74-drug conjugates on up-regulation of ZBTB16 mRNA levels in primary human B cells in vitro.

A further series concerns GILZ gene. Nature of the series: GILZ gene assay (qPCR, HUT78 / 786-O cells). The class given is cell-based. To be noted: for GILZ Max: at 10 uM; for EC50: read-out: GILZ EC50.

Sequence of glucocorticoid receptor (P04150 whole entry): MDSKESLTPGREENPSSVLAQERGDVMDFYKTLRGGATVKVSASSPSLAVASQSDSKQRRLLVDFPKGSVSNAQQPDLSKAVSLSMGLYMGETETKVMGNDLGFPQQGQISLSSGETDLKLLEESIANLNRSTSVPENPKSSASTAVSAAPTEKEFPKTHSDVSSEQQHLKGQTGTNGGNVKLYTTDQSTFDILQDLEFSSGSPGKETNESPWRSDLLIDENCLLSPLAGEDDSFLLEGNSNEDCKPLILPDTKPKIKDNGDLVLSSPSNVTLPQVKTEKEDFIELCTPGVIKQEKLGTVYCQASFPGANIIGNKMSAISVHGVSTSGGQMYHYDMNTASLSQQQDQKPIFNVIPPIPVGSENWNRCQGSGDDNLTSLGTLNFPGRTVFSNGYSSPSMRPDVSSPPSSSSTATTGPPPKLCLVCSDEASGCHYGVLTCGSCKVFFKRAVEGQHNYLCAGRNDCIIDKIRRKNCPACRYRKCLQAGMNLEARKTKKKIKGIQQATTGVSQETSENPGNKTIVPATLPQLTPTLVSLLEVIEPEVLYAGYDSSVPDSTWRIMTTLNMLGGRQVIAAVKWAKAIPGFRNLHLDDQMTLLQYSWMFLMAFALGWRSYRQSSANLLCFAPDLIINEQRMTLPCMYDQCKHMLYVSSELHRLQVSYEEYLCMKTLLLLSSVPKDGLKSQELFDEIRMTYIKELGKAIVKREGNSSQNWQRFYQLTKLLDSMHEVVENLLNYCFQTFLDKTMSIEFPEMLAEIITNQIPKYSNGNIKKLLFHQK
Description for GILZ gene: GILZ gene assays were conducted as follows. HUT78 cells were cultured in IMEM plus 20% heat inactivated FBS and cell density was maintained between 0.1 to 1.2 million/mL. 786-O cells were cultured in RPMI plus 10% heat inactivated FBS. Actively growing cells were harvested and resuspended in HBSS with 2% FBS at 1.1 million cells per mL then dispensed to 384-well V-bottom plates at 45 μL per well. Serially diluted ADC solution was added to the cell plate (5 μL per well) and mixed for 2 min. Cells were then cultured at 37° C., at 5% CO2 for a designated time before supernatant was removed. Cells were harvested in lysis buffer from the Cells-to-Ct kit (40 μL, Life Technologies, 4391851C) following the supplier's protocol and mixed for 10 min followed by addition of 5 μL per well of stop solution from the kit. cDNA was synthesized with a reverse transcription kit (Life Technologies, 4391852C) follow by qPCR using the TaqMan gene expression master mix (Life Technologies, 4369016) with GILZ gene assay (Life Technologies, Hs00608272_m1) and GAPDH assay (Hs2758991_g1) in a duplex format with 3-4 technical replicates.
Description for MDCKII cells: Determination of apparent permeability was as follows. MDCKII cells (kindly provided by the Netherlands Cancer Institute, under a licensing agreement) were seeded on to 96-well transwell culture plates (Millipore Corp, Billerica, Mass.) and used in experiments after five days in culture. […] Substrate solution (150 μL) was added to either the apical (A) or the basolateral (B) compartment of the culture plate, and buffer (150 μL; HBSS, 10 mM HEPES, pH 7.4) with 10 μM cyclosporine A was added to the compartment opposite to that containing the substrate. At t=3 hr, 50 μL samples were removed from both sides of monolayers dosed with test compound and placed in 96 well plates, 50 μL internal standard (1 μM labetolol) and 100 μL HBSS was added to the samples. Samples were analyzed by LC/MS/MS using an Applied Biosystems SCIEX API 5000 triple quadruple mass spectrometer (Concord, ON, Canada) with a TurbolonSpray ion source in the positive ion mode. A Thermo Scientific Transcend LX-2 system (Franklin, Mass.) was coupled to the API 5000 with a flow rate of 800 μL/min to direct sample into the mass spectrometer.
Papp was expressed as 10^−6 cm/s.
Description for glucocorticoid receptor: The potency of binding to glucocorticoid receptor by small molecule compounds was measured with the PolarScreen™ Glucocorticoid Receptor Competitor Assay Kit, Red (Life Technology, Catalog #A15898) according to the procedure in the kit. In brief, after compounds were diluted and transferred into assay plates, the fluormone GS red and GR full length protein were subsequently added into the assay plates, along with the positive and negative controls. The samples were mixed on a shaker for 1 minute and then the plates were incubated at room temperature for 2-4 hours with minimal light exposure. The plates were read with an Envision and the relative fluorescent signals were calculated. The data were plotted in GraphPad Prism and the EC50 values were calculated with non-linear regression curve fit of the data in GraphPad Prism.

A word on the IC50: it is the concentration needed to halve the response being measured. Broadly, the EC50 is the concentration that produces a half-maximal response. Turning to `CCC(=O)O[C@]1(C(=O)SCCCCCCCCCCP(=O)(O)O)[C@H](C)C[C@H]2[C@@H]3C[C@H](F)C4=CC(=O)C=C[C@]4(C)[C@@]3(F)[C@@H](O)C[C@@]21C` [Compound 3, (10-(((6S,8S,9R,10S,11S,13S,14S,16R,17R)-6,9-difluoro-11-hydroxy-10,13,16-trimethyl-3-oxo-17-(propionyloxy)-6,7,8,9,10,11,12,13,14,15,16,17-dodecahydro-3H-cyclopenta[a]phenanthrene-17-carbonyl)thio)decyl)phosphonic acid], the IC50 at glucocorticoid receptor is 0.44 nM. Further, the “MDCK Permeability (cm × 10−6/sec)” value in the series with MDCKII cells turned out to be 1.04 cm × 10−6/sec. Also, in the series on ZBTB16 mRNA, the “ZBTB16 mRNA Max relative to free fluticasone” value is reported as 75% and the midpoint of the response, the EC50, lay at 1100 nM. Further, in the series with GILZ gene, the “GILZ Max” value is given as 71% (at and the EC50 is 649 nM.

Consider `C[C@@H]1C[C@H]2[C@@H]3C[C@H](F)C4=CC(=O)C=C[C@]4(C)[C@@]3(F)[C@@H](O)C[C@]2(C)[C@@]1(OC(=O)CCCCCCCCP(=O)(O)O)C(=O)SCF` [Compound 18, (9-(((6S,8S,9R,10S,11S,13S,14S,16R,17R)-6,9-difluoro-17-(((fluoromethyl)thio)carbonyl)-11-hydroxy-10,13,16-trimethyl-3-oxo-6,7,8,9,10,11,12,13,14,15,16,17-dodecahydro-3H-cyclopenta[a]phenanthren-17-yl)oxy)-9-oxononyl)phosphonic acid], for which, at glucocorticoid receptor, the IC50 was 0.1 nM. The “MDCK Permeability (cm × 10−6/sec)” value with MDCKII cells is reported as less than 0.9 cm × 10−6/sec. In the series with ZBTB16 mRNA, the “ZBTB16 mRNA Max relative to free fluticasone” value was greater than 77% and the EC50 turned out to be 3200 nM. Besides, in the series with GILZ gene, the “GILZ Max” value is given as 65% (at and the half-maximal effective concentration (EC50) is 3040 nM.
